Data on 21 molecules can be found in patent US8809352B2, “Sulfonamides as inhibitors of Bcl-2 family proteins for the treatments of cancer” (Novartis AG, priority 2009, dated 2014).

Molecules are shown by their SMILES.

BCL2, sequence (P10415 whole entry): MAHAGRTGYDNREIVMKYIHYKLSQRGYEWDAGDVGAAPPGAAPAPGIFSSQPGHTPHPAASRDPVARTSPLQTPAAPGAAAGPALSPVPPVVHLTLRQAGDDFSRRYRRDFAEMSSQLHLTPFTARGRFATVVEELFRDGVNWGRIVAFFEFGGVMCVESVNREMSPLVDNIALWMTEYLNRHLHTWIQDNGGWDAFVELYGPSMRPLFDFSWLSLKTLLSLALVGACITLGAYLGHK

This test addresses BCL2 (Homo sapiens, UniProt P10415). Nature of the test: Biacore SPR solution inhibition assay of BCL-2 binding to peptide derivatized sensor surfaces. The following applies: SPR competition; 56 nM BCL2 pre-equilibrated with compound one hour; biotinylated BAK, BAD and NOXA peptide surfaces; 25° C. In short, it runs like this: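 Solution-competition SPR at 25 °C in HEPES pH 7.4 buffer with 1.25 mM DTT and 3% DMSO: compounds (6-point threefold series, 16 μM to 0.004 nM) pre-equilibrated 1 h with 56 nM BCL2, then injected over captured biotinylated BAK, BAD and NOXA peptide surfaces. Binding levels relative to BCL2-only controls gave % inhibition.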
As to `CC#CCOc1ccccc1CN1CCC(N2CCc3c(ncnc3NS(=O)(=O)c3ccc(N[C@H](CCN(C)C)CSc4ccccc4)c(S(=O)(=O)C(F)(F)F)c3)C2)CC1` [Example 46, (R)-N-(7-(1-(2-(but-2-ynyloxy)benzyl)piperidin-4-yl)-5,6,7,8-tetrahydropyrido[3,4-d]pyrimidin-4-yl)-4-(4-(dimethylamino)-1-(phenylthio)butan-2-ylamino)-3-(trifluoromethylsulfonyl)benzenesulfonamide], the IC50 came to 1770 nM. Then `CN(C)CC[C@H](CSc1ccccc1F)Nc1ccc(S(=O)(=O)Nc2ncnc3c2CCN(C2CCN(Cc4ccccc4-c4ccc(Cl)cc4)CC2)C3)cc1S(=O)(=O)C(F)(F)F` [Example 47, N-{7-[1-(4′-Chloro-biphenyl-2-ylmethyl)-piperidin-4-yl]-5,6,7,8-tetrahydro-pyrido[3,4-d]pyrimidin-4-yl}-4-[(R)-3-dimethylamino-1-(2-fluoro-phenylsulfanylmethyl)-propylamino]-3-trifluoromethanesulfonyl-benzene sulfonamide], with 25 nM; and `CN(C)CC[C@H](CSc1ccccc1)Nc1ccc(S(=O)(=O)Nc2nc(Cl)nc3c2CCN(C2CCN(Cc4ccccc4-c4ccc(Cl)cc4)CC2)C3)cc1S(=O)(=O)C(F)(F)F` [Example 50, (R)-N-(2-chloro-7-(1-((4′-chlorobiphenyl-2-yl)methyl)piperidin-4-yl)-5,6,7,8-tetrahydropyrido[3,4-d]pyrimidin-4-yl)-4-(4-(dimethylamino)-1-(phenylthio)butan-2-ylamino)-3-(trifluoromethylsulfonyl)benzenesulfonamide], with 31 nM; and `CC(c1ccccc1-c1ccc(Cl)cc1)N1CCC(N2CCc3c(ncnc3NS(=O)(=O)c3ccc(N[C@H](CCN(C)C)CSc4ccccc4)c(S(=O)(=O)C(F)(F)F)c3)C2)CC1` (stereo partly drawn) [Example 51, N-(7-(1-(1-(4′-chlorobiphenyl-2-yl)ethyl)piperidin-4-yl)-5,6,7,8-tetrahydropyrido[3,4-d]pyrimidin-4-yl)-4-((R)-4-(dimethylamino)-1-(phenylthio)butan-2-ylamino)-3-(trifluoromethylsulfonyl)benzenesulfonamide], with 35 nM.

`O=S(=O)(Nc1ncnc2c1CCN(C1CCN(Cc3ccccc3-c3ccc(Cl)cc3)CC1)C2)c1ccc(NCCSc2ccccc2)c(S(=O)(=O)C(F)(F)F)c1` [Example 52]: the concentration for half-maximal inhibition (IC50) is 1310 nM. The figure for `CN(C)CC[C@H](CSc1ccccc1)Nc1ccc(S(=O)(=O)Nc2ncnc3c2CCN(C2CCN(Cc4ccccc4-c4ccc(Cl)cc4)CC2)C3)cc1C(F)(F)F` [Example 53] is 66 nM; for `CN(C)CC[C@H](CSc1ccccc1)Nc1ccc(S(=O)(=O)Nc2ncnc3c2CCN(C2CCN(Cc4ccccc4-c4ccc(Cl)cc4)CC2)C3)cc1C#N` [Example 54, (R)-N-(7-(1-((4′-chlorobiphenyl-2-yl)methyl)piperidin-4-yl)-5,6,7,8-tetrahydropyrido[3,4-d]pyrimidin-4-yl)-3-cyano-4-(4-(dimethylamino)-1-(phenylthio)butan-2-ylamino)benzenesulfonamide] it is 173 nM. `CN1CCN(CC[C@H](CSc2ccccc2F)Nc2ccc(S(=O)(=O)Nc3ncnc4c3CCN(C3CCN(CC5=C(c6ccc(Cl)cc6)CC(C)(C)CC5)CC3)C4)cc2S(=O)(=O)C(F)(F)F)CC1` [Example 55, (R)-N-(7-(1-((2-(4-chlorophenyl)-4,4-dimethylcyclohex-1-enyl)methyl)piperidin-4-yl)-5,6,7,8-tetrahydropyrido[3,4-d]pyrimidin-4-yl)-4-(1-(2-fluorophenylthio)-4-(4-methylpiperazin-1-yl)butan-2-ylamino)-3-(trifluoromethylsulfonyl)benzenesulfonamide]: the half-inhibitory concentration (IC50) was determined as 35 nM.

Regarding `CN1CCN(CC[C@H](CSc2ccccc2F)Nc2ccc(S(=O)(=O)Nc3ncnc4c3CCN(C3CCN(Cc5ccccc5-c5ccc(Cl)cc5)CC3)C4)cc2S(=O)(=O)C(F)(F)F)CC1` [Example 56, (R)-N-(7-(1-((4′-chlorobiphenyl-2-yl)methyl)piperidin-4-yl)-5,6,7,8-tetrahydropyrido[3,4-d]pyrimidin-4-yl)-4-(1-(2-fluorophenylthio)-4-(4-methylpiperazin-1-yl)butan-2-ylamino)-3-(trifluoromethylsulfonyl)benzenesulfonamide], the IC50 is 27 nM. As for `CN(C)CC[C@H](CSc1cccc(Cl)c1)Nc1ccc(S(=O)(=O)Nc2ncnc3c2CCN(C2CCN(Cc4ccccc4-c4ccc(F)cc4)CC2)C3)cc1S(=O)(=O)C(F)(F)F` [Example 57, N-{7-[1-(4′-Fluoro-biphenyl-2-ylmethyl)-piperidin-4-yl]-5,6,7,8-tetrahydro-pyrido[3,4-d]pyrimidin-4-yl}-4-[(R)-1-(3-chloro-phenylsulfanylmethyl)-3-dimethylamino-propylamino]-3-trifluoromethanesulfonyl-benzenesulfonamide], the half-maximal inhibitory concentration (IC50) is 99 nM.

On to `O=[N+]([O-])c1cc(S(=O)(=O)Nc2ncnc3c2CCN(C2CCN(Cc4ccccc4-c4ccc(Cl)cc4)CC2)C3)ccc1N[C@H](CCN1CCOCC1)CSc1ccccc1` [Example 58], for which the IC50 turned out to be 66 nM.

Consider `CCC[C@H](CSc1ccccc1)Nc1ccc(S(=O)(=O)Nc2ncnc3c2CCN(C2CCN(CC4=C(c5ccc(Cl)cc5)CC(C)(C)CC4)CC2)C3)cc1S(=O)(=O)C(F)(F)F` [Example 59, N-(7-(1-((2-(4-chlorophenyl)-4,4-dimethylcyclohex-1-enyl)methyl)piperidin-4-yl)-5,6,7,8-tetrahydropyrido[3,4-d]pyrimidin-4-yl)-4-(1-(phenylthio)pentan-2-ylamino)-3-(trifluoromethylsulfonyl)benzenesulfonamide], for which the IC50 is 579 nM. Then `COC1(Cc2ccccc2Br)CCC(N2CCc3c(ncnc3NS(=O)(=O)c3ccc(N[C@H](CCN(C)C)CSc4ccccc4)c(S(=O)(=O)C(F)(F)F)c3)C2)CC1` (stereo partly drawn) [Example 61, (R)-N-(7-(4-(2-bromobenzyl)-4-methoxycyclohexyl)-5,6,7,8-tetrahydropyrido[3,4-d]pyrimidin-4-yl)-4-(4-(dimethylamino)-1-(phenylthio)butan-2-ylamino)-3-(trifluoromethylsulfonyl)benzenesulfonamide], with 306 nM. Then `CN(C)CC[C@H](CSc1ccccc1)Nc1ccc(S(=O)(=O)Nc2ncnc3c2CCN(C2CCC(=Cc4ccccc4-c4ccc(Cl)cc4)CC2)C3)cc1S(=O)(=O)C(F)(F)F` (stereo partly drawn) [Example 62, N-(7-(4-((4′-chlorobiphenyl-2-yl)methylene)cyclohexyl)-5,6,7,8-tetrahydropyrido[3,4-d]pyrimidin-4-yl)-4-((R)-4-(dimethylamino)-1-(phenylthio)butan-2-ylamino)-3-(trifluoromethylsulfonyl)benzenesulfonamide], with 174 nM; and `CN(C)CC[C@H](CSc1ccccc1)Nc1ccc(S(=O)(=O)Nc2ncnc3c2CCN(C2CCC(=Cc4ccccc4)CC2)C3)cc1S(=O)(=O)C(F)(F)F` (stereo partly drawn) [Example 63], with 1180 nM; and `O=S(=O)(Nc1ncnc2c1CCN(C1CCN(Cc3ccccc3-c3ccc(Cl)cc3)CC1F)C2)c1ccc(N[C@H](CCN2CCOCC2)CSc2ccccc2)c(S(=O)(=O)C(F)(F)F)c1` (stereo partly drawn) [Example 65, N-(7-(1((4′-Chlorobiphenyl-2-yl)methyl)-3-fluoropiperidin-4-yl)-5,6,7,8-tetrahydropyrido[3,4-d]pyrimidin-4-yl)-4-((R)-4-morpholino-1-(phenylthio)butan-2-ylamino)-3-(trifluoromethylsulfonyl)benzenesulfonamide], with 181 nM. On to `CN(C)CC[C@H](CSc1ccccc1)Nc1ccc(S(=O)(=O)Nc2ncnc3c2CCN(C2CCN(Cc4ccccc4-c4ccc(Cl)cc4)CC2F)C3)cc1S(=O)(=O)C(F)(F)F` (stereo partly drawn) [Example 66, N-(7-(1-((4′-chlorobiphenyl-2-yl)methyl)-3-fluoropiperidin-4-yl)-5,6,7,8tetrahydropyrido[3,4-d]pyrimidin-4-yl)-4-((R)-4-(dimethylamino)-1-(phenylthio)butan-2-ylamino)-3-(trifluoromethylsulfonyl)benzenesulfonamide], for which the IC50 came out at 36 nM. The figure for `CN(C)CC[C@H](CSc1ccccc1)Nc1ccc(S(=O)(=O)Nc2nc(C(F)(F)F)nc3c2CCN(C2CCN(Cc4ccccc4-c4ccc(Cl)cc4)CC2)C3)cc1S(=O)(=O)C(F)(F)F` [Example 67, (R)-N-(7-(1((4′-chlorobiphenyl-2-yl)methyl)piperidin-4-yl)-2-(trifluoromethyl)-5,6,7,8-tetrahydropyrido[3,4-d]pyrimidin-4-yl)-4-(4-(dimethylamino)-1-(phenylthio)butan-2-ylamino)-3-(trifluoramethylsulfonyl)benzenesulfonamide] is 42 nM; for `O=S(=O)(Nc1nc(C(F)(F)F)nc2c1CCN(C1CCN(Cc3ccccc3-c3ccc(Cl)cc3)CC1)C2)c1ccc(N[C@H](CCN2CCOCC2)CSc2ccccc2)c(S(=O)(=O)C(F)(F)F)c1` [Example 68, (R)-N-(7-(1-((4′-chlorobiphenyl-2-yl)methyl)piperidin-4-yl)-2-(trifluoromethyl)-5,6,7,8-tetrahydropyrido[3,4-d]pyrimidin-4-yl)-4-(4-morpholino-1-(phenylthio)butan-2-ylamino)-3-(trifluoromethylsulfonyl)benzenesulfonamide] it is 235 nM. For `CN(C)CC[C@H](CSc1ccccc1)Nc1ccc(S(=O)(=O)Nc2nc(C(F)(F)F)nc3c2CCN(C2CCN(Cc4ccccc4-c4ccc(Cl)cc4)CC2F)C3)cc1S(=O)(=O)C(F)(F)F` (stereo partly drawn) [Example 69, N-(7-(1-((4′-chlorobiphenyl-2-yl)methyl)-3-fluoropiperidin-4-yl)-2-(trifluoromethyl)-5,6,7,8-tetrahydropyrido[3,4-d]pyrimidin-4-yl)-4-((R)-4-(dimethylamino)-1-(phenylthio)butan-2-ylamino)-3-(trifluoromethylsulfonyl)benzenesulfonamide], the IC50 amounted to 47 nM. The figure for `CN(C)CC[C@H](CSc1ccccc1)Nc1ccc(S(=O)(=O)Nc2nc(C(F)(F)F)nc3c2CCN(C2CCN(CC4=C(c5ccc(Cl)cc5)CCC(C)(C)C4)CC2)C3)cc1S(=O)(=O)C(F)(F)F` [Example 70] is 51 nM.
